Here are results for 9 compounds from patent US8877944B2, “3-oxo-2,3-dihydro-1H-isoindole-4-carboxamides as PARP inhibitors” (Nerviano Medical Sciences S.R.L., priority 2009, dated 2014).

For orientation: Kd means a measure of binding affinity in units of concentration. Higher therefore signals weaker binding. The IC50 is the concentration that inhibits the measured activity by half. In general, AUC refers to the area under the concentration-time curve, a measure of exposure. As a reminder, the half-life is the time needed for the level to fall by half in the phase considered.

The target in one data set is PARP-1 FL (Homo sapiens (Human), UniProt P09874). The data set is described as follows: Fluorescence polarization probe displacement assay, PARP-1. The settings on record: for DC50: half maximal displacement concentration. It is filed as binding. In general terms: In fluorescence polarisation assays a small probe gives low polarisation when free and higher when bound to something large.

Another data set addresses PARP-2 FL (Homo sapiens (Human), UniProt Q9UGN5). Briefly: Fluorescence polarization probe displacement assay, PARP-2. It is filed as binding.
In the next data set the target is PARP-3 FL (Homo sapiens (Human), UniProt Q9Y6F1). Briefly: Fluorescence polarization probe displacement assay, PARP-3. It is filed as binding. The settings on record: half maximal displacement concentration.
Data set [1] deals with PAR formation in HeLa cells. The data set is described as follows: Cellular PAR assay: inhibition of hydrogen peroxide induced PAR formation. The settings on record: Homo sapiens, read-out: PAR assay IC50.
Experimental: Compounds potencies were evaluated by measuring the inhibition of poly (ADP-ribose) (PAR) chains formation as a marker for PARP-1 inhibition.
Cellular activity of PARP-1 inhibitors was assessed by measuring the inhibition of the hydrogen peroxide induced PAR formation in HeLa cells (ECACC). Cellular PAR levels were measured by immunocytochemistry, and quantified using an ArrayScan vTi instrument (Cellomics Thermo Scientific).
Test compounds were then added at the required concentration for 30′. […] Concentration curves were prepared in MEM/10% FCS from compound stocks in DMSO, and final DMSO concentration was 0.002% (v/v). Duplicate wells for each concentration point were prepared with a typical highest compound concentration of 20 μM and serial dilution 1:3. […] Non-specific binding sites were blocked by incubating wells for 30 min in PBS containing 5% (w/v) FBS 0.05% tween20. […] After washing further 3 times in PBS, cellular PAR immunoreactivity was assessed using the ArrayScan vTi instrument, with a Zeiss 10×0.5 N.A. objective, and applying the Cytotoxicity.V3 algorithm (Cellomics/Thermo Fisher) with a XF100 filter. At least 10 fields, corresponding to at least 900 cells, were read for each well.
The following formula is used: IC50=Bottom+(Top-Bottom)/(1+10^((LogEC50−X))); X is the logarithm of concentration. IC50 is the response; IC50 starts at Bottom and goes to Top with a sigmoid shape.
Data set [2] can be described thus: Pharmacokinetics and oral bioavailability in the mouse.
Experimental: The compounds were formulated in 10% tween 80/dextrose for intravenous bolus administration while oral administrations were performed using the compounds formulated in 0.5% methylcellulose. A single administration at the dose of 10 mg/kg was given and three male animals for each route were used. […] Plasma samples were prepared by plasma proteins precipitation adding 200 μL of methanol to 10 μL of plasma in a 96 well plate. […] The supernatant was considered as final extract and injected onto the LC-MS-MS system (HPLC system: Hewlett Packard 1100 series using Atlantis HILIC Silica 50*2.1 mm 5.0 μm analytical column; MS instrument: Perkin Elmer SCIEX API 2000 and ionization performed with Turbo Ion Spray in positive ion mode). Lower limit of quantification is 5.0 ng/mL, upper limit of quantification is 10000 ng/mL. […] Non-compartmental method (linear trapezoidal rule and linear regression analysis of natural log-transformed plasma concentrations vs. time data) was used. After intravenous dosing, C0 was set equal to C0.083 Absolute bioavailability (F) was calculated from the ratio of average oral to IV (intravenous) dose-normalized plasma AUC (area under curve) values.
Setting [3] is: compound P3 as the probe, 100 nM PARP-1.
Where [4] appears, read: read-out: PARP-2 DC50; half maximal displacement concentration.
Setting [5] is: male, Balb Nu/Nu, plasma, iv, 10 mg/kg.
[6] abbreviates: male, Balb Nu/Nu, plasma, po, 10 mg/kg.
The mark [7] stands for this setting: compound P1 as the probe, 250 nM PARP-1.

Like-named read-outs stand apart in the source and are kept apart here.

Sequence of PARP-3 FL (Q9Y6F1 whole entry): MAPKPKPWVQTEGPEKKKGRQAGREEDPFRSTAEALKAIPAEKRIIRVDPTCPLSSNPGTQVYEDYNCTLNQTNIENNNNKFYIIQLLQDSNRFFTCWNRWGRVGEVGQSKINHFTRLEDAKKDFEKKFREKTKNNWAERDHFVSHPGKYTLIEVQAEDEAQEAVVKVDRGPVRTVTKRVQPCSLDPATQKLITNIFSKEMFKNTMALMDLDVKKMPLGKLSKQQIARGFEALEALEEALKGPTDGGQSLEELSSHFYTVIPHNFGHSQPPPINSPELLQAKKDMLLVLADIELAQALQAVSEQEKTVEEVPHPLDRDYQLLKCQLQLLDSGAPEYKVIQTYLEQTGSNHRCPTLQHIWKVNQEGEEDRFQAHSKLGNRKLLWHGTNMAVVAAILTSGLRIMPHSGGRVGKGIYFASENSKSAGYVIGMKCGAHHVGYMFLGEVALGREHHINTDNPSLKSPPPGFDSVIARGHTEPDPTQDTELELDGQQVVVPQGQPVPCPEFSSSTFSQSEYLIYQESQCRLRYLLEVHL
Sequence of PARP-2 FL (Q9UGN5 whole entry): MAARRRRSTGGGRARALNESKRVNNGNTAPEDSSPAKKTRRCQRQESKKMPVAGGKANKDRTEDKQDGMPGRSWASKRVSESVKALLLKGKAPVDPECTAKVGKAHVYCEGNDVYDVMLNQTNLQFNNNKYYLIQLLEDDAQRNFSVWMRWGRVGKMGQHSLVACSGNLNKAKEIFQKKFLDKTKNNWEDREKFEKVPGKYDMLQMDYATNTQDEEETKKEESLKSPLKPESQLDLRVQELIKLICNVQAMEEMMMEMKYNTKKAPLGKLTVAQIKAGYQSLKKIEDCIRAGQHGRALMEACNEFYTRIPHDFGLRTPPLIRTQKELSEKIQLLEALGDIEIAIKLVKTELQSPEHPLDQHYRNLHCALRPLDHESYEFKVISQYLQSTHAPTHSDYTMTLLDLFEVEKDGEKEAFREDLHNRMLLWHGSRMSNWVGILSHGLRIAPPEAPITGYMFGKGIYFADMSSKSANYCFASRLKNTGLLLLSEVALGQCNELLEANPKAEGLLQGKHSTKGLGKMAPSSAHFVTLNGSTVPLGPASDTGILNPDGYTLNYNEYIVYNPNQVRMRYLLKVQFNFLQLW
Sequence of PARP-1 FL (P09874 whole entry): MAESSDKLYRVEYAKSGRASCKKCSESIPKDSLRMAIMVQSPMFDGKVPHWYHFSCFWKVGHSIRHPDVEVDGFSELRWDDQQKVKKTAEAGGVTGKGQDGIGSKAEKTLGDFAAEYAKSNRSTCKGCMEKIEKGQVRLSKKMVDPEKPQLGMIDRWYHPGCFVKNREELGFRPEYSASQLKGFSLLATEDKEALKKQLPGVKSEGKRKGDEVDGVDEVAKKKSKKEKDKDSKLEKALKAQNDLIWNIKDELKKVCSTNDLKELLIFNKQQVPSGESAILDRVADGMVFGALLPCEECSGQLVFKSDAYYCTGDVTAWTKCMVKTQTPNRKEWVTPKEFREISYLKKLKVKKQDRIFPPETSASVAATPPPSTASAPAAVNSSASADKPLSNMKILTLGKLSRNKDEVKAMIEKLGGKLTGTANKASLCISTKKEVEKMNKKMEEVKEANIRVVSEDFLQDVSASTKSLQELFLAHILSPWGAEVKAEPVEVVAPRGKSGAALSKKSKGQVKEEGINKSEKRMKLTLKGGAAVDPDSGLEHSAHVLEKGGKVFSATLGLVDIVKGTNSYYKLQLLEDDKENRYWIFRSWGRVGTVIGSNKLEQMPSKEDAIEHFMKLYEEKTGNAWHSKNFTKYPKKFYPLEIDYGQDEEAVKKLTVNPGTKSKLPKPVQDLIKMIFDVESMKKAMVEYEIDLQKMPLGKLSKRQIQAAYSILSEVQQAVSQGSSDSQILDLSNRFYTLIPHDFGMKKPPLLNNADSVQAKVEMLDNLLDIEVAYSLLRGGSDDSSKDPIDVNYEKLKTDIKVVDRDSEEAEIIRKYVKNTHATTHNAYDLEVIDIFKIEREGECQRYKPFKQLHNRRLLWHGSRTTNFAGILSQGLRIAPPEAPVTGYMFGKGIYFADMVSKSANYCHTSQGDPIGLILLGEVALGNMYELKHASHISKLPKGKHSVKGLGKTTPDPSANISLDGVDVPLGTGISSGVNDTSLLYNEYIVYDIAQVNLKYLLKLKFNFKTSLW
Experimental for PARP-1 FL: (§1) Affinity evaluation of the tested compounds and their selectivity with respect to the different PARP isoforms of interest was assessed in a displacement assay.
(§2) The polarization signal can be measured, e.g., by a plate reader such as the Saphire2 (Tecan). The displacement ability of the test compound is in correlation with the compound affinity for the NAD pocket of the enzyme.
(§3) The assay performances were then evaluated (Z′ factor) as well as the displacement of the probe by its scaffold and known commercially available PARP inhibitors. In all of the experiments, the polarization signal was measured using a Saphire2 plate reader (Tecan). Data analysis was performed using Dynafit software. In particular, titration data were fitted to the following equilibria: Enzyme+probe <==> Complex Enzyme-probe, while displacement data were fitted to the following equilibria: Enzyme+probe <==> Complex Enzyme-probe, Enzyme+Compound <==> Complex Enzyme-Compound, whereby binding of probe and compound on the enzyme are mutually exclusive (pure competitive mechanism). Displacement data were also fitted using Excell spreadsheet (Microsoft Inc. Seattle, USA) to a four parameter logistic model (4PL), or Hill-Slope model to calculate DC50s where the DC50 value represents the compound concentration at which the polarization signal is diminished by 50% compared to untreated controls.
(§4) KD values, are the average of three independent experiments.
Experimental for PARP-2 FL: as §1, §2, §3, §4
Experimental for PARP-3 FL: as §1, §2, §3, §4

Consider `CO[C@H]1CC[C@@H](N2CCC(N3Cc4cccc(C(N)=O)c4C3=O)CC2)CC1` [Compound 1, 2-[1-(Cis-4-methoxycyclohexyl)piperidin-4-yl]-3-oxo-2,3-dihydro-1H-isoindole-4-carboxamide], for which the Kd on PARP-1 FL (setting [3]) amounted to 60 nM. In addition, the DC50 at PARP-1 FL was under 250 nM; on PARP-2 FL (setting [4]) it was over 10000 nM; at PARP-3 FL, 3700 nM. For the same compound, the half-inhibitory concentration (IC50) in data set [1] was 390 nM.
In turn, `CO[C@H]1CC[C@H](N2CCC(N3Cc4cccc(C(N)=O)c4C3=O)CC2)CC1` [Compound 2, 2-[1-(Trans-4-methoxycyclohexyl)piperidin-4-yl]-3-oxo-2,3-dihydro-1H-isoindole-4-carboxamide] gave a Kd at PARP-1 FL (setting [3]) of 25 nM. For the same compound, the DC50 on PARP-1 FL is under 250 nM; at PARP-2 FL (setting [4]), over 10000 nM; on PARP-3 FL it was 6000 nM. Also, in data set [1], the IC50 amounted to 160 nM.
`NC(=O)c1cccc2c1C(=O)N(C1CCN([C@H]3CC[C@@H](CO)CC3)CC1)C2` [Compound 3, 2-{1-[Cis-4-(hydroxymethyl)cyclohexyl]piperidin-4-yl}-3-oxo-2,3-dihydro-1H-isoindole-4-carboxamide] displayed a Kd at PARP-1 FL (setting [3]) of 13 nM. The DC50 at PARP-1 FL was under 250 nM; on PARP-2 FL (half maximal displacement concentration; read-out: PARP-2 DC50) it was over 10000 nM; on PARP-3 FL, 2300 nM. Also, in data set [2] (10 mg/kg single oral dose, mean value), the “C-max (oral)” value worked out at 1.17 µM. In addition, the “F on AUC” value in data set [2] (10 mg/kg, oral vs IV dose-normalized AUC) is 82.5%. The same compound gave a Vd in data set [2] (setting [5]) of 4.75 L/kg. Further, the clearance in data set [2] (setting [5]) came to 104 mL/min/kg. The compound further yielded an AUC in data set [2] (setting [6]) of 2.39 µM·h. In data set [2] (setting [6]), this compound had a half-life of 1.75 h. The IC50 in data set [1] turned out to be 140 nM.
On to `NC(=O)c1cccc2c1C(=O)N(C1CCN(C3CCC4(CC3)OCCO4)CC1)C2` [Compound 8, 2-[1-(1,4-Dioxaspiro[4.5]dec-8-yl)piperidin-4-yl]-3-oxo-2,3-dihydro-1H-isoindole-4-carboxamide], for which the Kd on PARP-1 FL (setting [7]) is 130 nM. Also, the DC50 was 280 nM on PARP-1 FL, over 10000 nM at PARP-2 FL (setting [4]) and over 10000 nM on PARP-3 FL. In data set [1], the concentration for half-maximal inhibition (IC50) is 530 nM.
Consider `NC(=O)c1cc(Cl)cc2c1C(=O)N(C1CCN(C3CCC(F)(F)CC3)CC1)C2` [Compound 100, 2-[1-(4,4-Difluorocyclohexyl)-piperidin-4-yl]-6-chloro-3-oxo-2,3-dihydro-1H-isoindole-4-carboxamide], for which the figures for the DC50 at PARP-2 FL (setting [4]) and at PARP-3 FL were over 10000 nM and 790 nM, respectively.
In the same order, the values of `NC(=O)c1ccc(F)c2c1C(=O)N(C1CCN(C3CCC(F)(F)CC3)CC1)C2` [Compound 101, 2-[1-(4,4-Difluorocyclohexyl)-piperidin-4-yl]-7-fluoro-3-oxo-2,3-dihydro-1H-isoindole-4-carboxamide] are over 10000 nM and over 10000 nM.
`NC(=O)c1cc(F)cc2c1C(=O)N(C1CCN(C3CCC(=O)CC3)CC1)C2` [Compound 103, 6-Fluoro-3-oxo-2-[1-(4-oxocyclohexyl)piperidin-4-yl]-2,3-dihydro-1H-isoindole-4-carboxamide] yielded a Kd on PARP-1 FL (setting [3]) of under 10 nM. For the same compound, the figures for the DC50 at PARP-1 FL, at PARP-2 FL (setting [4]) and on PARP-3 FL were under 250 nM, 3770 nM and 4670 nM, respectively. In data set [1], the IC50 turned out to be 80 nM.
Turning to `NC(=O)c1cc(F)cc2c1C(=O)N(C1CCN(C3CCC(Cl)(Cl)CC3)CC1)C2` [Compound 105, 2-[1-(4,4-Dichlorocyclohexyl)piperidin-4-yl]-6-fluoro-3-oxo-2,3-dihydro-1H-isoindole-4-carboxamide], the DC50 on PARP-2 FL (setting [4]) was over 10000 nM; on PARP-3 FL it was 1080 nM.
For the compound `COCCN1CCC(N2Cc3cccc(C(N)=O)c3C2=O)CC1` [Compound 106, 2-[1-(2-Methoxyethyl)piperidin-4-yl]-3-oxo-2,3-dihydro-1H-isoindole-4-carboxamide], binding at PARP-1 FL (setting [7]) was characterised by a dissociation constant (Kd) of 110 nM. The DC50 was 280 nM on PARP-1 FL, over 10000 nM on PARP-2 FL (setting [4]) and 2550 nM at PARP-3 FL. Further, the IC50 in data set [1] was determined as 410 nM.
